{
  "source": "patent US20070167488A1",
  "about": "“Novel therapeutic use” (Leo Pharma A/S, priority 2003, published 2007)",
  "key": {"IFN-γ": {"test_system": "IFN-γ", "test": "IFN-γ production by spleen cells of immunized, dosed mice after in vitro restimulation with PLP139-153", "assay_type": "cell-based, mouse", "settings": "example 6, 50 mg/kg i.p. daily for 10 days, vs vehicle treated group"}, "IL-2": {"test_system": "IL-2", "test": "IL-2 production by spleen cells of immunized, dosed mice after in vitro restimulation with PLP139-153", "assay_type": "cell-based, mouse", "settings": "example 6, 50 mg/kg i.p. daily for 10 days, vs vehicle treated group"}, "[1]": {"test_system": "EAE induced in SJL/J mice with a peptide from myelin proteolipid protein (PLP139-153)", "test": "EAE model in SJL/J mice immunized with PLP139-153 peptide", "assay_type": "in vivo, mouse", "settings": "for Inhibition of EAE compared with the suspension vehicle group (in words): SJL/J mice, PLP139-153, doses as in tables 1 and 3; for inhibition of EAE: another experiment (data not shown)"}, "IL-17": {"test_system": "IL-17", "test": "IL-17 production by spleen cells of immunized, dosed mice after in vitro restimulation with PLP139-153", "assay_type": "cell-based, mouse", "settings": "example 6, 50 mg/kg i.p. daily for 10 days, vs vehicle treated group"}, "IL-6": {"test_system": "IL-6", "test": "IL-6 production by spleen cells of immunized, dosed mice after in vitro restimulation with PLP139-153", "assay_type": "cell-based, mouse", "settings": "example 6, 50 mg/kg i.p. daily for 10 days, vs vehicle treated group"}, "[2]": {"test_system": "EAE in C57BL/6 mice immunized with a peptide from myelin oligodendrocyte glycoprotein (MOG35-55)", "test": "Second EAE model: C57BL/6JBom mice immunized with MOG35-55 peptide", "assay_type": "in vivo, mouse", "settings": "MOG35-55, day 0-21, dexamethasone 1 mg/kg p.o."}, "[3]": {"settings": "listed as 3-(1H-indol-3-ylmethylene)-1,3-dihydro-indol-2-one"}, "[4]": {"settings": "Table 3, experiment with vehicle AUC 28.6, day 0-21, 50 mg/kg i.p. daily"}, "[5]": {"settings": "Table 7, 50 mg/kg p.o., suspension vehicle"}, "[6]": {"settings": "Table 4, 50 mg/kg daily, treatment as in example 4"}, "[7]": {"settings": "Table 3, experiment with vehicle AUC 42.75, day 0-21, 50 mg/kg i.p. daily"}, "[8]": {"settings": "Table 7, 50 mg/kg p.o., suspension vehicle adjusted to pH 4 by addition of aqueous HCl"}, "[9]": {"settings": "Exp. 1, terminated day 21, 50 mg/kg i.p. daily"}, "[10]": {"settings": "Exp. 4, terminated day 35, 200 mg/kg p.o. daily"}, "[11]": {"settings": "Exp. 2, terminated day 21, 5 mg/kg i.p. daily"}, "[12]": {"settings": "Exp. 2, terminated day 21, 10 mg/kg i.p. daily"}, "[13]": {"settings": "Exp. 1, terminated day 21, dexamethasone 0.5 mg/kg from day 0"}, "[14]": {"settings": "Exp. 2, terminated day 21, dexamethasone 1 mg/kg from day 1"}, "[15]": {"settings": "Exp. 3, terminated day 28, dexamethasone 1 mg/kg from day 1"}, "[16]": {"settings": "Table 3, experiment with compound 57 (vehicle AUC 28.6), day 0-21, dexamethasone 1 mg/kg p.o."}, "[17]": {"settings": "Table 3, experiment with compound 110 (vehicle AUC 42.75), day 0-21, dexamethasone 1 mg/kg p.o."}},
  "note": "Marks after values point to notes of the source that are not given here.",
  "data": [
    {"smiles": "O=C1Nc2ccccc2C1=Cc1c[nH]c2ccccc12", "note": "(racemic) [Compound 57, 3-(1H-indol-3-ylmethylene)-1,3-dihydro-indol-2-one]", "values": [
      {"measurement": "Level of antigen-specific IFN-γ production of spleen cells", "setting": "IFN-γ; [3]", "result": "inhibit expression"},
      {"measurement": "Level of antigen-specific IFN-γ production of spleen cells", "setting": "IFN-γ; listed as compound 57", "result": "clearly reduced"},
      {"measurement": "Level of antigen-specific IL-2 production of spleen cells", "setting": "IL-2; [3]", "result": "inhibit expression"},
      {"measurement": "Level of antigen-specific IL-2 production of spleen cells", "setting": "IL-2; listed as compound 57", "result": "clearly reduced"},
      {"measurement": "Inhibition of EAE compared with the suspension vehicle group (in words)", "setting": "[1]", "result": "clear and significant inhibition"},
      {"measurement": "AUC (mean) of the disease score", "setting": "[1]; [4]", "result": 4.70},
      {"measurement": "inhibition (%)", "setting": "[1]; [4]", "result": 84, "unit": "%"},
      {"measurement": "Inhibition (%) of EAE (area-under-curve of the disease score)", "setting": "[1]; [5]", "result": 32, "unit": "%"},
      {"measurement": "Level of antigen-specific IL-17 production of spleen cells", "setting": "IL-17; [3]", "result": "inhibit expression"},
      {"measurement": "Level of antigen-specific IL-17 production of spleen cells", "setting": "IL-17; listed as compound 57", "result": "clearly reduced"},
      {"measurement": "Level of antigen-specific IL-6 production of spleen cells", "setting": "IL-6; [3]", "result": "inhibit expression"},
      {"measurement": "Level of antigen-specific IL-6 production of spleen cells", "setting": "IL-6; listed as compound 57", "result": "clearly reduced"}
    ]},
    {"smiles": "Cc1cc(C)c(C=C2C(=O)Nc3ccccc32)[nH]1", "note": "[3-(3,5-dimethyl-1H-pyrrol-2-ylmethylene)-1,3-dihydro-indol-2-one]", "values": [
      {"measurement": "Level of antigen-specific IFN-γ production of spleen cells", "setting": "IFN-γ", "result": "inhibit expression"},
      {"measurement": "Level of antigen-specific IL-2 production of spleen cells", "setting": "IL-2", "result": "inhibit expression"},
      {"measurement": "Level of antigen-specific IL-17 production of spleen cells", "setting": "IL-17", "result": "inhibit expression"},
      {"measurement": "Level of antigen-specific IL-6 production of spleen cells", "setting": "IL-6", "result": "inhibit expression"}
    ]},
    {"smiles": "Cc1ccc(C)c(/C=C2/C(=O)Nc3ccccc32)c1", "note": "[Compound 104, 3-(2,5-dimethyl-benzylidene)-1,3-dihydro-indol-2-one]", "values": [
      {"measurement": "Inhibition (%) of EAE (area-under-curve of the disease score)", "setting": "[1]; [6]", "result": 71, "unit": "%"}
    ]},
    {"smiles": "COc1ccc(OC)c(/C=C2/C(=O)Nc3ccccc32)c1", "note": "[Compound 110, 3-(2,5-dimethoxy-benzylidene)-1,3-dihydro-indol-2-one]", "values": [
      {"measurement": "Inhibition of EAE compared with the suspension vehicle group (in words)", "setting": "[1]", "result": "clear and significant inhibition"},
      {"measurement": "AUC (mean) of the disease score", "setting": "[1]; [7]", "result": 12.15},
      {"measurement": "inhibition (%)", "setting": "[1]; [7]", "result": 72, "unit": "%"},
      {"measurement": "Inhibition (%) of EAE (area-under-curve of the disease score)", "setting": "[1]; [5]", "result": 47, "unit": "%"},
      {"measurement": "Inhibition (%) of EAE (area-under-curve of the disease score)", "setting": "[1]; [8]", "result": "67** %"},
      {"measurement": "inhibition of EAE", "setting": "[1]; 50 mg/kg, highest dose", "result": 90, "unit": "%"},
      {"measurement": "inhibition of EAE", "setting": "[1]; lowest dose (significant at 50, 25 and 10 mg/kg; 4 mg/kg also given)", "result": 42, "unit": "%"}
    ]},
    {"smiles": "COc1ccc(OC)c(/C=C2/C(=O)Nc3cc(Br)ccc32)c1", "note": "[Compound 171, 6-bromo-3-(2,5-dimethoxy-benzylidene)-1,3-dihydro-indol-2-one]", "values": [
      {"measurement": "Inhibition (%) of EAE (area-under-curve of the disease score)", "setting": "[1]; [6]", "result": 40, "unit": "%"}
    ]},
    {"smiles": "COc1ccc(OC)c(/C=C2/C(=O)Nc3ccc(F)cc32)c1", "note": "[Compound 211, 3-(2,5-dimethoxy-benzylidene)-5-fluoro-1,3-dihydro-indol-2-one]", "values": [
      {"measurement": "Inhibition (%) of EAE (area-under-curve of the disease score)", "setting": "[1]; [8]", "result": "37** %"}
    ]},
    {"smiles": "CCN(CC)CCNC(=O)c1c(C)[nH]c(/C=C2\\C(=O)Nc3ccccc32)c1C", "note": "[Compound 227, 2,4-dimethyl-5-(2-oxo-1,2-dihydro-indol-3-ylidenemethyl)-1H-pyrrole-3-carboxylic acid (2-diethylamino-ethyl)-amide]", "values": [
      {"measurement": "Inhibition (%) of EAE (area-under-curve of the disease score)", "setting": "[1]; [6]", "result": 49, "unit": "%"}
    ]},
    {"smiles": "CCN(CC)CCNC(=O)c1c(C)[nH]c(/C=C2\\C(=O)Nc3ccc(F)cc32)c1C", "note": "[Compound 228, 5-(5-fluoro-2-oxo-1,2-dihydro-indol-3-ylidenemethyl)-2,4-dimethyl-1H-pyrrole-3-carboxylic acid (2-diethylamino-ethyl)-amide]", "values": [
      {"measurement": "Inhibition (%) of EAE (area-under-curve of the disease score)", "setting": "[1]; [6]", "result": 43, "unit": "%"}
    ]},
    {"smiles": "Cc1cc(C)c(/C(C(=O)O)=C2\\C(=O)Nc3ccccc32)[nH]1", "note": "[Compound 229, (3,5-dimethyl-1H-pyrrol-2-yl)-(2-oxo-1,2-dihydro-indol-3-ylidene)-acetic acid]", "values": [
      {"measurement": "Inhibition (%) of EAE (area-under-curve of the disease score)", "setting": "[1]; [6]", "result": 59, "unit": "%"}
    ]},
    {"smiles": "Cc1[nH]c(C=C2C(=O)Nc3ccccc32)c(C)c1CCC(=O)O", "note": "[Compound A, 3-[2,4-dimethyl-5-(oxo-1,2-dihydroindol-3-ylidenemethyl)-1H-pyrrol-3-yl]-propionic acid, reference compound]", "values": [
      {"measurement": "AUC (mean) of the disease score", "setting": "[1]; [9]", "result": 23.4},
      {"measurement": "inhibition (%)", "setting": "[1]; [9]", "result": "−36", "unit": "%"},
      {"measurement": "AUC (mean) of the disease score", "setting": "[1]; [10]", "result": 55.5},
      {"measurement": "inhibition (%)", "setting": "[1]; [10]", "result": 11, "unit": "%"},
      {"measurement": "Inhibition of EAE compared with the suspension vehicle group (in words)", "setting": "[1]", "result": "no significant inhibition"}
    ]},
    {"smiles": "CO[C@@H]1[C@H](OC(=O)NC(=O)CCl)CC[C@]2(CO2)[C@H]1[C@@]1(C)O[C@@H]1CC=C(C)C", "note": "[Compound B, reference compound]", "values": [
      {"measurement": "AUC (mean) of the disease score", "setting": "[1]; [11]", "result": 19.0},
      {"measurement": "inhibition (%)", "setting": "[1]; [11]", "result": 25, "unit": "%"},
      {"measurement": "AUC (mean) of the disease score", "setting": "[1]; [12]", "result": 19.3},
      {"measurement": "inhibition (%)", "setting": "[1]; [12]", "result": 24, "unit": "%"},
      {"measurement": "Inhibition of EAE compared with the suspension vehicle group (in words)", "setting": "[1]", "result": "no significant inhibition"}
    ]},
    {"smiles": "C[C@@H]1C[C@H]2[C@@H]3CCC4=CC(=O)C=C[C@]4(C)[C@@]3(F)[C@@H](O)C[C@]2(C)[C@@]1(O)C(=O)CO", "note": "[Dexamethasone, dexamethasone, reference compound]", "values": [
      {"measurement": "AUC (mean) of the disease score", "setting": "[2]", "result": 0.00},
      {"measurement": "inhibition (%)", "setting": "[2]", "result": 100, "unit": "%"},
      {"measurement": "AUC (mean) of the disease score", "setting": "[1]; [13]", "result": 4.3},
      {"measurement": "inhibition (%)", "setting": "[1]; [13]", "result": 75, "unit": "%"},
      {"measurement": "AUC (mean) of the disease score", "setting": "[1]; [14]", "result": 11.8},
      {"measurement": "inhibition (%)", "setting": "[1]; [14]", "result": 54, "unit": "%"},
      {"measurement": "AUC (mean) of the disease score", "setting": "[1]; [15]", "result": 0.8},
      {"measurement": "inhibition (%)", "setting": "[1]; [15]", "result": 98, "unit": "%"},
      {"measurement": "AUC (mean) of the disease score", "setting": "[1]; [16]", "result": 13.15},
      {"measurement": "inhibition (%)", "setting": "[1]; [16]", "result": 54, "unit": "%"},
      {"measurement": "AUC (mean) of the disease score", "setting": "[1]; [17]", "result": 8.85},
      {"measurement": "inhibition (%)", "setting": "[1]; [17]", "result": 79, "unit": "%"}
    ]}
  ]
}
